Laboratory results published in the supplement of paper PMC10307832.

Experiments:
Assay in all cases: relative viability (nuclei count vs DMSO), 5 days (fraction); higher = more cells survive
[1] = compound: Cc1ccc(C(=O)Nc2ccc(CN3CCN(C)CC3)c(C(F)(F)F)c2)cc1C#Cc1cnc2cccnn12 [Ponatinib] + Cc1nc(Nc2ncc(C(=O)Nc3c(C)cccc3Cl)s2)cc(N2CCN(CCO)CC2)n1 [Dasatinib] (partner 0.075 µM)
Summary of the method: (§1)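 Lung cancer cell lines in 1536-well plates were dosed by pin tool the day after seeding, either with one drug alone or with a fixed anchor-drug dose plus five library-drug doses (not always all listed) in √10 steps. After 5 days, cells were fixed and their nuclei stained in one step (final 0.05% Triton X-100, 1% formaldehyde, 1 ug/ml Hoechst), then counted on 4× images. Relative viability is the nuclei count in treated wells divided by that in vehicle wells. Values are medians of duplicate plates.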

[2] = compound: Cc1ccc(Nc2nccc(N(C)c3ccc4c(C)n(C)nc4c3)n2)cc1S(N)(=O)=O [Pazopanib] + O=C(CCCCCCC(=O)Nc1ccccc1)NO [Vorinostat] (partner 1 µM)
Summary of the method: as §1

[3] = compound: Cc1ccc(Nc2nccc(N(C)c3ccc4c(C)n(C)nc4c3)n2)cc1S(N)(=O)=O [Pazopanib] + COc1cccc2cc(-c3nc([C@H]4CC[C@H](C(=O)O)CC4)n4ncnc(N)c34)[nH]c12 [OSI-027] (partner 0.5 µM)
Summary of the method: as §1

[4] = compound: Cc1ccc(Nc2nccc(N(C)c3ccc4c(C)n(C)nc4c3)n2)cc1S(N)(=O)=O [Pazopanib] + Cc1nc(NC(=O)N2CCC[C@H]2C(N)=O)sc1-c1ccnc(C(C)(C)C(F)(F)F)c1 [Alpelisib] (partner 2 µM)
Summary of the method: as §1

Row | Cell Line | relative viability ([1]; first compound 0.002 µM) | relative viability ([1]; first compound 0.006325 µM) | relative viability ([1]; first compound 0.06325 µM) | relative viability ([1]; first compound 0.2 µM) | relative viability ([2]; first compound 0.03162 µM) | relative viability ([2]; first compound 0.1 µM) | relative viability ([2]; first compound 0.3162 µM) | relative viability ([2]; first compound 1 µM) | relative viability ([3]; first compound 0.01 µM) | relative viability ([3]; first compound 0.03162 µM) | relative viability ([3]; first compound 0.1 µM) | relative viability ([3]; first compound 0.3162 µM) | relative viability ([3]; first compound 1 µM) | relative viability ([4]; first compound 0.03162 µM) | relative viability ([4]; first compound 0.1 µM) | relative viability ([4]; first compound 0.3162 µM) | relative viability ([4]; first compound 1 µM) | relative viability ([2]; first compound 0.01 µM) | relative viability ([4]; first compound 0.01 µM)
1 | LCLC-97TM1 | 0.983 | 0.94 | 0.906 | 0.863 | 0.877 | 0.58 | 0.797 | 0.736 | 0.5 | 0.601 | 0.523 | 0.528 | 0.513 | 0.236 | 0.272 | 0.234 | 0.243 | – | –
2 | NCI-H838 | 0.275 | 0.261 | 0.305 | 0.258 | 0.734 | 0.816 | 0.706 | 0.794 | 0.435 | 0.488 | 0.373 | 0.42 | 0.555 | 1.02 | 1.07 | 1.08 | 1.11 | 0.72 | 1.01
3 | NCI-H1355 | 0.651 | 0.714 | 0.81 | 0.668 | 0.632 | 0.696 | 0.643 | 0.651 | 0.37 | 0.441 | 0.396 | 0.423 | 0.477 | 0.765 | 0.99 | 0.871 | 0.849 | 0.488 | –
4 | HOP-62 | 0.6 | 0.607 | 0.819 | 0.6 | 0.584 | 0.474 | 0.656 | 0.496 | 0.787 | 0.869 | 0.871 | 0.879 | 0.727 | 1 | – | 1.23 | 1.07 | 0.494 | 0.68
5 | NCI-H2085 | 0.268 | 0.261 | 0.221 | 0.237 | 0.849 | 0.758 | 0.838 | 0.86 | 0.817 | 0.782 | 0.752 | 0.719 | 0.787 | 0.974 | 1.02 | 0.995 | 1.05 | 0.674 | 0.964
